This is an account of results in patent US4698347A, “Octahydro-oxazolo[4,5-g]quinolines derivatives and decahydro quinoline intermediates and their use as dopamine D-2 agonists” (Eli Lilly and Company, priority 1986, dated 1987).

For assay [1], the system named is spontaneously hypertensive rats (SHR). The experiment in a line: Blood pressure and heart rate in anesthetized spontaneously hypertensive rats (SHR), i.v. It counts as in vivo, rat. The conditions noted are these: for % change in BP (mean arterial blood pressure ± standard error) / % change in heart rate (± standard error): four rats. The procedure: The compounds of this invention I, and III are effective in the treatment of hypertension.
Adult male spontaneously hypertensive rats (SHR) (Taconic Farms, Germantown, N.Y.), weighing approximately 300 g. were anesthetized with pentobarbital sodium (60 mg./kg., i.p.). The trachea was cannulated and SHR respired room air. Pulsatile arterial blood pressure was measured from a cannulated carotid artery using a Statham transducer (P23 ID). Mean arterial blood pressure was calculated as diastolic blood pressure plus 1/3 pulse pressure. Cardiac rate was monitored by a cardiotachometer which was triggered by the systolic pressure pulse. Drug solutions were administered i.v. through a catheter placed in a femoral vein. Arterial blood pressure and cardiac rate were recorded on a multichannel oscillograph (Beckman, Model R511A). Fifteen minutes were allowed to elapse following surgery for equilibration of the preparation.
In the table, column 1 gives the name of the drug, column 2 dose in μg/kg, column 3 percent change in mean arterial blood pressure plus or minus standard error and column 4, percent change in heart rate plus or minus standard error. Four rats were used at each dose level.

The subject of assay [2] is apomorphine binding sites. Kind of assay: Inhibition of 3H-apomorphine binding (vs spiperone sites). The conditions noted are these: printed as 40 to 1. The source says: With trans-(±)-2-methyl-5-n-propyl-4,4a,5,6,7,8,8a,9-octahydrooxazolo[4,5-g]quinoline; the ratio of binding, to apomorphine sites vs spiperone sites is 40 to 1.

The structures appear in SMILES notation. “And” between values parts separate entries of the source, which are not always exact repeats. Identical values can stand only once.

For `CCCN1CCC[C@H]2Cc3nc(N)oc3C[C@@H]21` (racemic) [Trans-(±)-2-amino-5-n-propyl-4,4a,5,6,7,8,8a,9-octahydro-oxazolo[4,5-g]quinoline], the figures for the “% change in BP (mean arterial blood pressure ± standard error)” value in assay [1] (dose 0.1 μg/kg), in assay [1] (dose 1 μg/kg) and in assay [1] (dose 10 μg/kg) were -18.3 ± 5.7%, -8.6 ± 1.6% and -15.1 ± 1.1%, respectively. The “% change in heart rate (± standard error)” value in assay [1] (dose 0.1 μg/kg) was -8.5 ± 2.2%; in assay [1] (dose 1 μg/kg) it was -4.4 ± 0.9%; in assay [1] (dose 10 μg/kg), -5.6 ± 0.7%; in assay [1] (dose 100 μg/kg) it was -17.5 ± 2.3% and -19.1 ± 3.4%. Besides, the “Duration of change in BP” value in assay [1] (dose 100 μg/kg) was “* (Duration of 15 min or greater)”.
Regarding `CCCN1CCC[C@H]2Cc3nc(C)oc3C[C@@H]21` (racemic) [Trans-(±)-2-methyl-5-n-propyl-4,4a,5,6,7,8,8a,9-octahydro-oxazolo[4,5-g]quinoline], the “% change in BP (mean arterial blood pressure ± standard error)” value is given as -3.2 ± 0.5% in assay [1] (dose 1 μg/kg), -7.0 ± 1.0% in assay [1] (dose 10 μg/kg), -19.6 ± 1.4% in assay [1] (dose 100 μg/kg) and -26.2 ± 4.3% in assay [1] (dose 1000 μg/kg). The “% change in heart rate (± standard error)” value is on record as -2.4 ± 0.8% in assay [1] (dose 1 μg/kg), -2.8 ± 0.4% in assay [1] (dose 10 μg/kg), -16.1 ± 7.6% in assay [1] (dose 100 μg/kg) and -23.6 ± 4.4% in assay [1] (dose 1000 μg/kg). Also, the “Duration of change in BP” value in assay [1] (dose 100 μg/kg) and in assay [1] (dose 1000 μg/kg) was “* (Duration of 15 min or greater)” in each case. The “ratio of binding, to apomorphine sites vs spiperone sites” value in assay [2] worked out at 40.
In the case of `CCCN1CCC[C@H]2Cc3ncoc3C[C@@H]21` (racemic) [trans-(±)-5-n-propyl-4,4a,5,6,7,8,8a,9-octahydro-oxazolo[4,5-g]quinoline], the “% change in BP (mean arterial blood pressure ± standard error)” value in assay [1] (dose 1 μg/kg) is given as -5.0 ± 1.2%; in assay [1] (dose 10 μg/kg) it was -10.2 ± 1.0%; in assay [1] (dose 100 μg/kg) it was -27.4 ± 20%; in assay [1] (dose 1000 μg/kg), -37.7 ± 4.9%. In addition, the “% change in heart rate (± standard error)” value in assay [1] (dose 1 μg/kg) is reported as -3.6 ± 0.5%; in assay [1] (dose 10 μg/kg) it was -4.6 ± 0.6%; in assay [1] (dose 100 μg/kg), -28.5 ± 2.6%; in assay [1] (dose 1000 μg/kg), -31.8 ± 3.7%. Moreover, the “Duration of change in BP” value in assay [1] (dose 100 μg/kg) and in assay [1] (dose 1000 μg/kg) was “* (Duration of 15 min or greater)” in each case.
